Where two headings read alike, the source gives them in different places.
Columns and labels:
[1] = test system: Bronchoconstriction in Guinea Pigs (induced with acetylcholine); test: Effect on bronchoconstriction in guinea pigs (via inhalation administration), Konzett method; assay type: in vivo; details: Cavia porcellus, iv; guinea pig, intratracheal administration 10 μL g/head, 24 hours after administration, acetylcholine 4 μg/kg i.v., versus control group; read-out: Percent of inhibition of bronchoconstriction (%)
Experimental: Effect on Bronchoconstriction in Guinea Pigs (Via Inhalation Administration)
The test was performed according to the method of Konzett et al. (Arch. Exp. Path Pharmak., 1940, 195, 71-74). Male Hartley guinea pigs (350 to 600 g) were anesthetized with urethane (1.8 g/kg, i.p.), and then a cannula for drug administration was inserted into each left jugular vein. After the immobilization with decamethonium (2 mg/kg, i.v.), a tracheal cannula was inserted, and controlled respiration was attained by a respirator (Harvard). Bronchoconstriction was measured as changes of airway pressure with a pressure transducer (Nihon Kohden Corp.). Each test compound was administered (10 μL g/head) from dissected trachea by using a device for intratracheal administration of liquid for guinea pigs (Penn Century), and after suture, the animals were returned to usual breeding. After 24 hours, acetylcholine (4 μg/kg, i.v.) was administered to induce bronchoconstriction, and inhibitory activity on bronchoconstriction was calculated as percent inhibition comparing to the change of airway pressure in control group was obtained.

[2] = target: T1, muscarinic M2 receptor (Cavia porcellus, UniProt H0VRN8); test: Muscarinic M2 antagonistic action in isolated guinea pig left atrium (carbachol-induced relaxation, Schild method); assay type: cell-based; details: compound applied 30 minutes before carbachol
T1 construct: left atria were excised to prepare tissue specimens; from tissue; host or cells: isolated guinea pig left atrium (male Hartley)
T1 sequence (H0VRN8 1-466): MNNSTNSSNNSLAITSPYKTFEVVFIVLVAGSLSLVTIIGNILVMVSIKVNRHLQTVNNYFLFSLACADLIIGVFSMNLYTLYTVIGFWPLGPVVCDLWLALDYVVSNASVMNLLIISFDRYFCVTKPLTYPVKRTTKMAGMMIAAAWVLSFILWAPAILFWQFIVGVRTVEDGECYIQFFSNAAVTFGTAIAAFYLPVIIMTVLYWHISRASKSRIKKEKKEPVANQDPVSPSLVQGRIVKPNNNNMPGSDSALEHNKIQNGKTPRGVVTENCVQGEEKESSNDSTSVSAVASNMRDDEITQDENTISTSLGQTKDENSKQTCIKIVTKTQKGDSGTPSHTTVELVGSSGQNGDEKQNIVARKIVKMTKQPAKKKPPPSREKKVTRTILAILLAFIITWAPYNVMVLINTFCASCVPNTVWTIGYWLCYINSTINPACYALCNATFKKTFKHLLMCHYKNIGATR
Experimental: Muscarinic M2 Antagonistic Action in Isolated Guinea Pig Left Atrium […] Each tissue specimen was kept warm at 37° C., suspended with a resting tension of 0.5 g in a 5-mL Magnus bath filled with a Krebs carbonate buffer bubbled with 95% O2/5% CO2. Then, contraction evoked by field electrical stimulation (4 Hz, 2 msec, 1.5×threshold potential) was measured. After a stabilization period of 60 minutes, carbachol-induced relaxation was isometrically measured and recorded by the cumulative method from 10^−8 M with an interval of 90 seconds for one concentration in an equal ratio of 3. After the measurement, the tissue specimen was immediately washed, and left for 45 minutes as a stabilization period before the next observation. The tissue specimen of which EC50 for the carbachol-induced relaxation was stabilized was considered as a control. Each test compound was applied 30 minutes before the addition of carbachol. The affinity (pA2) of the test compound was obtained in the same manner as in the case of the trachea.

[3] = target: T2, muscarinic M3 receptor (Cavia porcellus, UniProt H0W1Z3); test: Muscarinic M3 antagonistic action in isolated guinea pig trachea (carbachol-induced contraction, Schild method); assay type: cell-based; details: compound applied 15 minutes before carbachol
T2 construct: trachea was excised, and cut at every two tracheal cartilages to prepare tissue specimens; from tissue; host or cells: isolated guinea pig trachea (male Hartley)
Experimental: Muscarinic M3 Antagonistic Action in Isolated Guinea Pig Trachea
Male Hartley guinea pigs (350 to 600 g) were sacrificed by bleeding, and trachea was excised, and cut at every two tracheal cartilages to prepare tissue specimens. Each tissue specimen was kept warm at 37° C., suspended with a resting tension of 1 g in a 5-mL Magnus bath filled with a Krebs carbonate buffer containing indomethacin (1 μM) bubbled with 95% O2/5% CO2, and left for 60 minutes as a stabilization period. […] After the measurement, the tissue specimen was immediately washed, and left for 60 minutes as a stabilization period before the next contraction reaction, and the tissue specimen of which EC50 for the carbachol-induced contraction reaction was stabilized was considered as a control. Each test compound was applied 15 minutes before the addition of carbachol. The affinity (pA2) of the test compound was obtained by the Schild method (Arunlakshana, O. and Schild, H. O., Brit. J. Pharmacol., 1959, 14, 48-58).

[4] = pA2 Left atrium M2, isolated guinea pig left atrium
[5] = pA2 Trachea M3, isolated guinea pig trachea
[6] = isolated guinea pig left atrium

T2 sequence (H0W1Z3 1-590): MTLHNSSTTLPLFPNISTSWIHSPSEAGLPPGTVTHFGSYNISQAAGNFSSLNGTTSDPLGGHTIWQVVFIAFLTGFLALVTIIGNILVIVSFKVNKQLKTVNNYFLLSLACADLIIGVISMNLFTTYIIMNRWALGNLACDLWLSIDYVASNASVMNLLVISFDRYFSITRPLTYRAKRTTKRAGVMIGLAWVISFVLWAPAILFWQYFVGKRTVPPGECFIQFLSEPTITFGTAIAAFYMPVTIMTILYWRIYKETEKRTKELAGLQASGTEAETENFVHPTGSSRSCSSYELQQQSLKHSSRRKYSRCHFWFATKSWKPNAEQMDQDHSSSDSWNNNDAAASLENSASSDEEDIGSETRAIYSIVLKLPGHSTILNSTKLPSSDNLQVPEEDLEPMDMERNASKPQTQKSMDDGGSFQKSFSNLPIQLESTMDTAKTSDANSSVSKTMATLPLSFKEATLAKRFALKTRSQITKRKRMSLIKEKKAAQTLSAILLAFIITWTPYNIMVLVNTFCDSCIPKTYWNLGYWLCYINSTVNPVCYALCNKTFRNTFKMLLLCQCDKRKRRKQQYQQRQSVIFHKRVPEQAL

Molecule: C[n+]1ccn([C@H]2CC[C@H](C(C(N)=O)(c3ccccc3)c3ccccc3)C2)c1 (relative stereo) [Example 59, 3-(trans-3-(Carbamoyl(diphenyl)methyl)cyclopentyl)-1-methyl-3H-imidazol-1-ium iodide]
- inhibition in vivo at 0.01 mg [1]: 90%
- Kb [2, 4]: 20 nM
- Kb [3, 5]: 0.794 nM

Molecule: NC(=O)C(c1ccccc1)(c1ccccc1)[C@@H]1CC[C@H](n2c[n+](Cc3ccccc3)cn2)C1 (relative stereo) [Example 71, 4-Benzyl-1-(cis-3-(carbamoyl(diphenyl)methyl)cyclopentyl)-1H-[1,2,4]triazol-4-ium bromide]
- Kb [2, 4]: 39.8 nM
- Kb [3, 5]: 0.794 nM

Molecule: Cc1n([C@H]2CC[C@@H](C(C(N)=O)(c3ccccc3)c3ccccc3)C2)cc[n+]1CC1CC1 (relative stereo) [Example 30, 3-(cis-3-(Carbamoyl(diphenyl)methyl)cyclopentyl)-1-cyclopropylmethyl-2-methyl-3H-imidazol-1-ium bromide]
- inhibition in vivo at 0.01 mg [1]: 80%

Molecule: Cc1n([C@H]2CC[C@@H](C(C(N)=O)(c3ccccc3)c3ccccc3)C2)cc[n+]1Cc1ccc(F)cc1 [Example 85, 3-((1S,3R)-3-(Carbamoyl(diphenyl)methyl)cyclopentyl)-1-(4-fluorobenzyl)-2-methyl-3H-imidazol-1-ium bromide]
- Kb [2, 4]: 31.6 nM
- Kb [3, 5]: 0.794 nM

Molecule: COCC[n+]1ccn([C@H]2CC[C@H](C(C(N)=O)(c3ccccc3)c3ccccc3)C2)c1C (relative stereo) [Example 67, 3-(trans-3-(Carbamoyl(diphenyl)methyl)cyclopentyl)-1-(2-methoxyethyl)-2-methyl-3H-imidazol-1-ium bromide]
- Kb [2, 4]: 79.4 nM
- Kb [3, 5]: 1.26 nM

Molecule: 3-(trans-3-(Carbamoyl(diphenyl)methyl)cyclopentyl)-1-cyclopentylmethyl-2-methyl-3H-imidazol-1-ium bromide [Example 68]
- pA2 Left atrium M2 [2, 6]: 7.4
- pA2 Trachea M3 ([3]; isolated guinea pig trachea): 9.4

Molecule: C[n+]1ccn([C@H]2CC[C@@H](C(C(N)=O)(c3ccccc3)c3ccccc3)C2)c1 (relative stereo) [Example 5, 3-(cis-3-(Carbamoyl(diphenyl)methyl)cyclopentyl)-1-methyl-3H-imidazol-1-ium iodide]
- Kb [2, 4]: 31.6 nM
- Kb [3, 5]: 2.51 nM

Molecule: CC(=O)OCCC[n+]1ccn([C@H]2CC[C@H](C(C(N)=O)(c3ccccc3)c3ccccc3)C2)c1C (relative stereo) [Example 75, 1-(3-Acetoxypropyl)-3-(trans-3-(carbamoyl(diphenyl)methyl)cyclopentyl)-2-methyl-3H-imidazol-1-ium bromide]
- Kb [2, 4]: 158 nM
- Kb [3, 5]: 0.501 nM

Molecule: Cc1n([C@H]2CC[C@@H](C(C(N)=O)(c3ccccc3)c3ccccc3)C2)cc[n+]1CCC(C)C [Example 79, 3-((1S,3R)-3-(Carbamoyl(diphenyl)methyl)cyclopentyl)-2-methyl-1-(3-methyl-butyl)-3H-imidazol-1-ium bromide]
- Kb [2, 4]: 63.1 nM
- Kb [3, 5]: 0.631 nM

Molecule: CCOCC[n+]1ccn([C@H]2CC[C@@H](C(C(N)=O)(c3ccccc3)c3ccccc3)C2)c1C (relative stereo) [Example 25, 3-(cis-3-(Carbamoyl(diphenyl)methyl)cyclopentyl)-1-(2-ethoxy-ethyl)-2-methyl-3H-imidazol-1-ium bromide]
- Kb [2, 4]: 25.1 nM
- Kb [3, 5]: 1.58 nM

Molecule: Cc1n([C@H]2CC[C@H](C(C(N)=O)(c3ccccc3)c3ccccc3)C2)cc[n+]1Cc1ccccc1 (single isomer, unassigned) [Example 97, 1-Benzyl-3-(trans-3-(carbamoyl(diphenyl)methyl)cyclopentyl)-2-methyl-3H-imidazol-1-ium bromide]
- Kb [2, 4]: 3.98 nM
- Kb [3, 5]: 0.1 nM

Molecule: Cc1n([C@H]2CC[C@@H](C(C(N)=O)(c3ccccc3)c3ccccc3)C2)cc[n+]1C(F)F (relative stereo) [Example 37, 3-(cis-3-(Carbamoyl(diphenyl)methyl)cyclopentyl)-1-difluoromethyl-2-methyl-3H-imidazol-1-ium bromide]
- inhibition in vivo at 0.01 mg [1]: 80%
- Kb [3, 5]: 0.794 nM

Molecule: C=C(CC)[n+]1ccn([C@H]2CC[C@@H](C(C(N)=O)(c3ccccc3)c3ccccc3)C2)c1C.[Br-] [Example 78, 3-((1S,3R)-3-(Carbamoyl(diphenyl)methyl)cyclopentyl)-1-buten-2-yl-2-methyl-3H-imidazol-1-ium bromide]
- pA2 Left atrium M2 [2, 6]: 7.9
- pA2 Trachea M3 ([3]; isolated guinea pig trachea): 9.2

Molecule: Cc1n([C@H]2CC[C@@H](C(C(N)=O)(c3ccccc3)c3ccccc3)C2)cc[n+]1CCCO (relative stereo) [Example 54, 3-(cis-3-(Carbamoyl(diphenyl)methyl)cyclopentyl)-1-(3-hydroxy-propyl)-2-methyl-3H-imidazol-1-ium bromide]
- Kb [2, 4]: 31.6 nM
- Kb [3, 5]: 1 nM

Molecule: Cc1n([C@H]2CC[C@@H](C(C(N)=O)(c3ccccc3)c3ccccc3)C2)cc[n+]1CCO.[Br-] [Example 84, 3-((1S,3R)-3-(Carbamoyl(diphenyl)methyl)cyclopentyl)-1-hydroxyethyl-2-methyl-3H-imidazol-1-ium bromide]
- pA2 Left atrium M2 [2, 6]: 6.3
- pA2 Trachea M3 ([3]; isolated guinea pig trachea): 8.2

Molecule: Cc1n([C@H]2CC[C@@H](C(C(N)=O)(c3ccccc3)c3ccccc3)C2)cc[n+]1C [Example 94, 3-((1S,3R)-3-(Carbamoyl(diphenyl)methyl)cyclopentyl)-1,2-dimethyl-3H-imidazol-1-ium para-toluenesulfonate]
- Kb ([2]; isolated guinea pig left atrium, read-out: pA2 Left atrium M2 (converted)): 100 nM
- Kb ([3]; isolated guinea pig trachea, read-out: pA2 Trachea M3 (converted)): 0.794 nM

Molecule: Cc1n([C@@H]2CC[C@H](C(C(N)=O)(c3ccccc3)c3ccccc3)C2)cc[n+]1C(F)F [Example 92, 3-((1R,3S)-3-(Carbamoyl(diphenyl)methyl)cyclopentyl)-1-difluoromethyl-2-methyl-3H-imidazol-1-ium bromide]
- Kb [2, 4]: 12.6 nM
- Kb [3, 5]: 0.398 nM

Molecule: CC(=O)OCC[n+]1ccn([C@H]2CC[C@@H](C(C(N)=O)(c3ccccc3)c3ccccc3)C2)c1C (relative stereo) [Example 51, 3-(cis-3-(Carbamoyl(diphenyl)methyl)cyclopentyl)-1-(2-acetoxy-ethyl)-2-methyl-3H-imidazol-1-ium bromide]
- Kb [2, 4]: 31.6 nM
- Kb [3, 5]: 1 nM

Molecule: COCC[n+]1cn([C@H]2CC[C@@H](C(C(N)=O)(c3ccccc3)c3ccccc3)C2)cn1 (relative stereo) [Example 72, 4-(cis-3-(Carbamoyl(diphenyl)methyl)cyclopentyl)-1-(2-methoxyethyl)-4H-[1,2,4]triazol-1-ium bromide]
- Kb [2, 4]: 31.6 nM
- Kb [3, 5]: 0.794 nM

Molecule: CC(=O)C[n+]1ccn([C@H]2CC[C@H](C(C(N)=O)(c3ccccc3)c3ccccc3)C2)c1C (relative stereo) [Example 86, 3-(trans-3-(Carbamoyl(diphenyl)methyl)cyclopentyl)-2-methyl-1-(2-oxopropyl)-3H-imidazol-1-ium bromide]
- Kb [2, 4]: 1260 nM
- Kb [3, 5]: 1.26 nM
